Test results from ChEMBL document CHEMBL4507266, “Data for DCP probe BAY-784” (2021).

What was measured:
[1] = target: Serine/threonine-protein kinase 17A (Homo sapiens) (UniProt Q9UEE5); conditions: Compound concentration 1000.0 nM
[2] = target: Casein kinase I isoform alpha-like (Homo sapiens) (UniProt Q8N752); conditions: Compound concentration 1000.0 nM
[3] = tested on: Leucine-rich repeat serine/threonine-protein kinase 2 (Homo sapiens), Q5S007 [G2019S]; conditions: Compound concentration 1000.0 nM
[4] = target: High affinity nerve growth factor receptor (Homo sapiens) (UniProt P04629); conditions: Compound concentration 1000.0 nM
[5] = tested on: ALK tyrosine kinase receptor (Homo sapiens), Q9UM73 [C1156Y]; conditions: Compound concentration 1000.0 nM
[6] = target: Tyrosine-protein kinase BTK (Homo sapiens) (UniProt Q06187); conditions: Compound concentration 1000.0 nM
[7] = target: Receptor-interacting serine/threonine-protein kinase 2 (Homo sapiens) (UniProt O43353); conditions: Compound concentration 1000.0 nM
[8] = target: Receptor tyrosine-protein kinase erbB-4 (Homo sapiens) (UniProt Q15303); conditions: Compound concentration 1000.0 nM
Receptor tyrosine-protein kinase erbB-4 (Homo sapiens), sequence (Q15303 whole entry): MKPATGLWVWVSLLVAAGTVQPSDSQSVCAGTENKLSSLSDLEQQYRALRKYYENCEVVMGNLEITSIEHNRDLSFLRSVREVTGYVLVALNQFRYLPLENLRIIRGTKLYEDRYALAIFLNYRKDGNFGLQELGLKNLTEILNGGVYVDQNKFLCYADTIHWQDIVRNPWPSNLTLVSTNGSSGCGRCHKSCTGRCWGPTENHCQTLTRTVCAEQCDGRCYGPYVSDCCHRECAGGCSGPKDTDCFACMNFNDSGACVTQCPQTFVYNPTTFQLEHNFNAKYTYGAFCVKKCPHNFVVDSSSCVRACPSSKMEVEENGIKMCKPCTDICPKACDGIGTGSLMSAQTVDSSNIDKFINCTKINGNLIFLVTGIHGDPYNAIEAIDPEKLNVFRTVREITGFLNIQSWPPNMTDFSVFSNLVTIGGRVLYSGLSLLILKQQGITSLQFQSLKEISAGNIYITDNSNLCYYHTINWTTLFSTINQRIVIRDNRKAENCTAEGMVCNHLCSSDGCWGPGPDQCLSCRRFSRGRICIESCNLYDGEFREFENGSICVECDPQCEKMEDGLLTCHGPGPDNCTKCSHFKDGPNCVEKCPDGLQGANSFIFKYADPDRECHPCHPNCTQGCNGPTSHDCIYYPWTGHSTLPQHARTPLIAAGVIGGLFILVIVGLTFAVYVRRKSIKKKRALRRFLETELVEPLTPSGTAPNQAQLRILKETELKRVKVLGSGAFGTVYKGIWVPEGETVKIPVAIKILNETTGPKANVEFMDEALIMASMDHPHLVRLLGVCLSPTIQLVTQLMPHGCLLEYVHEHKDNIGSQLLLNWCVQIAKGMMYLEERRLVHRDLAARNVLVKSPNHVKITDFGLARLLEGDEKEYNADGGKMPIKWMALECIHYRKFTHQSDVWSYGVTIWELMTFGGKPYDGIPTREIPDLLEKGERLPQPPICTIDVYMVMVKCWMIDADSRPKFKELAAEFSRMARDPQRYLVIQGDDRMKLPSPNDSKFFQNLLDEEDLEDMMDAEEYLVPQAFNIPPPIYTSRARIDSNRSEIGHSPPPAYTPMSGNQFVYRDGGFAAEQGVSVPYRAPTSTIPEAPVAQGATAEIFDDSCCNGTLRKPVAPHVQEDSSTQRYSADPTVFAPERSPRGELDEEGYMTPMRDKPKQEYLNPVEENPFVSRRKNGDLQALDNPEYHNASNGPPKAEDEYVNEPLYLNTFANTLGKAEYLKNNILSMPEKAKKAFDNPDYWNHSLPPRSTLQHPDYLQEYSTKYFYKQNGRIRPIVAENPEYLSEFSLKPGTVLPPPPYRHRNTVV

[9] = target: Cyclin-dependent kinase 4 (Homo sapiens) (UniProt P11802); conditions: Compound concentration 1000.0 nM
[10] = target: Serine/threonine-protein kinase 4 (Homo sapiens) (UniProt Q13043); conditions: Compound concentration 1000.0 nM
[11] = target: Mitogen-activated protein kinase 12 (Homo sapiens) (UniProt P53778); conditions: Compound concentration 1000.0 nM
[12] = tested on: Fibroblast growth factor receptor 3 (Homo sapiens), P22607 [G697C]; conditions: Compound concentration 1000.0 nM
[13] = target: Non-receptor tyrosine-protein kinase TNK1 (Homo sapiens) (UniProt Q13470); conditions: Compound concentration 1000.0 nM
[14] = target: Serine/threonine-protein kinase SBK1 (Homo sapiens) (UniProt Q52WX2); conditions: Compound concentration 1000.0 nM
[15] = target: Histamine H2 receptor (Homo sapiens) (UniProt P25021); conditions: Compound concentration 10.0 uM
[16] = target: TGF-beta receptor type-2 (Homo sapiens) (UniProt P37173); conditions: Compound concentration 1000.0 nM
[17] = target: Activin receptor type-1B (Homo sapiens) (UniProt P36896); conditions: Compound concentration 1000.0 nM
[18] = target: Tyrosine-protein kinase Fer (Homo sapiens) (UniProt P16591); conditions: Compound concentration 1000.0 nM
Tyrosine-protein kinase Fer (Homo sapiens), sequence (P16591 whole entry, looked up): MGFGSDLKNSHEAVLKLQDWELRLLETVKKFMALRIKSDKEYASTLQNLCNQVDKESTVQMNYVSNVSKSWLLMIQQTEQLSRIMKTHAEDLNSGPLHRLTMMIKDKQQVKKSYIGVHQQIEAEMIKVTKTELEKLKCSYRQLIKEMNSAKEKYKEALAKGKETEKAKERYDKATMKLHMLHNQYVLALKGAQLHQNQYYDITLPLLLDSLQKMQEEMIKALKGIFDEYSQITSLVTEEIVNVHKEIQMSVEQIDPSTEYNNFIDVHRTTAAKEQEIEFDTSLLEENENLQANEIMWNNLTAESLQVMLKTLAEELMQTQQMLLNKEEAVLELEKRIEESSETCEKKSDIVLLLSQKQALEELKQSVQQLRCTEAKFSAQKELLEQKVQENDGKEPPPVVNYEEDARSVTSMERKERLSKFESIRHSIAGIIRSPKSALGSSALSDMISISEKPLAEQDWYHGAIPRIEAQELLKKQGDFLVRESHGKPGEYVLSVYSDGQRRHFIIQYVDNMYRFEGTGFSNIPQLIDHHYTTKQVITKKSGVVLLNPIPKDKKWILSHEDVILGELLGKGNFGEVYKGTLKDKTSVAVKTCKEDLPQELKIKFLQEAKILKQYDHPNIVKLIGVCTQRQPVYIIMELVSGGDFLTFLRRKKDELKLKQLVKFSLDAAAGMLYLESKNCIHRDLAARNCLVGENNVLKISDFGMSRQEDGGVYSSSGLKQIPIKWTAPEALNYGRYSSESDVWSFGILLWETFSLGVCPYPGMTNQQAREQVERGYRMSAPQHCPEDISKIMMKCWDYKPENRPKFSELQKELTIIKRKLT

[19] = tested on: Tyrosine-protein kinase ABL1 (Homo sapiens), P00519 [F317L]; conditions: Compound concentration 1000.0 nM
[20] = tested on: Epidermal growth factor receptor (Homo sapiens), P00533 [UNDEFINED MUTATION]; conditions: Compound concentration 1000.0 nM
[21] = target: Macrophage colony-stimulating factor 1 receptor (Homo sapiens) (UniProt P07333); conditions: Compound concentration 1000.0 nM
[22] = target: Ribosomal protein S6 kinase beta-1 (Homo sapiens) (UniProt P23443); conditions: Compound concentration 1000.0 nM
[23] = target: Mitogen-activated protein kinase 15 (Homo sapiens) (UniProt Q8TD08); conditions: Compound concentration 1000.0 nM
[24] = target: Bone morphogenetic protein receptor type-1B (Homo sapiens) (UniProt O00238); conditions: Compound concentration 1000.0 nM
[25] = target: Serine/threonine-protein kinase 38-like (Homo sapiens) (UniProt Q9Y2H1); conditions: Compound concentration 1000.0 nM
[26] = target: Serine/threonine-protein kinase 35 (Homo sapiens) (UniProt Q8TDR2); conditions: Compound concentration 1000.0 nM
[27] = target: Serine/threonine-protein kinase Sgk2 (Homo sapiens) (UniProt Q9HBY8); conditions: Compound concentration 1000.0 nM
[28] = target: NUAK family SNF1-like kinase 1 (Homo sapiens) (UniProt O60285); conditions: Compound concentration 1000.0 nM
[29] = target: Cyclin-dependent kinase 19 (Homo sapiens) (UniProt Q9BWU1); conditions: Compound concentration 1000.0 nM
[30] = target: Proto-oncogene tyrosine-protein kinase Src (Homo sapiens) (UniProt P12931); conditions: Compound concentration 1000.0 nM
[31] = target: Calcium/calmodulin-dependent protein kinase type II subunit delta (Homo sapiens) (UniProt Q13557); conditions: Compound concentration 1000.0 nM
[32] = target: Alpha-1B adrenergic receptor (Homo sapiens) (UniProt P35368); conditions: Compound concentration 10.0 uM
[33] = target: Ephrin type-A receptor 4 (Homo sapiens) (UniProt P54764); conditions: Compound concentration 1000.0 nM
[34] = target: Casein kinase I isoform gamma-3 (Homo sapiens) (UniProt Q9Y6M4); conditions: Compound concentration 1000.0 nM
[35] = target: Transient receptor potential cation channel subfamily M member 6 (Homo sapiens) (UniProt Q9BX84); conditions: Compound concentration 1000.0 nM
Transient receptor potential cation channel subfamily M member 6 (Homo sapiens), sequence (Q9BX84 whole entry): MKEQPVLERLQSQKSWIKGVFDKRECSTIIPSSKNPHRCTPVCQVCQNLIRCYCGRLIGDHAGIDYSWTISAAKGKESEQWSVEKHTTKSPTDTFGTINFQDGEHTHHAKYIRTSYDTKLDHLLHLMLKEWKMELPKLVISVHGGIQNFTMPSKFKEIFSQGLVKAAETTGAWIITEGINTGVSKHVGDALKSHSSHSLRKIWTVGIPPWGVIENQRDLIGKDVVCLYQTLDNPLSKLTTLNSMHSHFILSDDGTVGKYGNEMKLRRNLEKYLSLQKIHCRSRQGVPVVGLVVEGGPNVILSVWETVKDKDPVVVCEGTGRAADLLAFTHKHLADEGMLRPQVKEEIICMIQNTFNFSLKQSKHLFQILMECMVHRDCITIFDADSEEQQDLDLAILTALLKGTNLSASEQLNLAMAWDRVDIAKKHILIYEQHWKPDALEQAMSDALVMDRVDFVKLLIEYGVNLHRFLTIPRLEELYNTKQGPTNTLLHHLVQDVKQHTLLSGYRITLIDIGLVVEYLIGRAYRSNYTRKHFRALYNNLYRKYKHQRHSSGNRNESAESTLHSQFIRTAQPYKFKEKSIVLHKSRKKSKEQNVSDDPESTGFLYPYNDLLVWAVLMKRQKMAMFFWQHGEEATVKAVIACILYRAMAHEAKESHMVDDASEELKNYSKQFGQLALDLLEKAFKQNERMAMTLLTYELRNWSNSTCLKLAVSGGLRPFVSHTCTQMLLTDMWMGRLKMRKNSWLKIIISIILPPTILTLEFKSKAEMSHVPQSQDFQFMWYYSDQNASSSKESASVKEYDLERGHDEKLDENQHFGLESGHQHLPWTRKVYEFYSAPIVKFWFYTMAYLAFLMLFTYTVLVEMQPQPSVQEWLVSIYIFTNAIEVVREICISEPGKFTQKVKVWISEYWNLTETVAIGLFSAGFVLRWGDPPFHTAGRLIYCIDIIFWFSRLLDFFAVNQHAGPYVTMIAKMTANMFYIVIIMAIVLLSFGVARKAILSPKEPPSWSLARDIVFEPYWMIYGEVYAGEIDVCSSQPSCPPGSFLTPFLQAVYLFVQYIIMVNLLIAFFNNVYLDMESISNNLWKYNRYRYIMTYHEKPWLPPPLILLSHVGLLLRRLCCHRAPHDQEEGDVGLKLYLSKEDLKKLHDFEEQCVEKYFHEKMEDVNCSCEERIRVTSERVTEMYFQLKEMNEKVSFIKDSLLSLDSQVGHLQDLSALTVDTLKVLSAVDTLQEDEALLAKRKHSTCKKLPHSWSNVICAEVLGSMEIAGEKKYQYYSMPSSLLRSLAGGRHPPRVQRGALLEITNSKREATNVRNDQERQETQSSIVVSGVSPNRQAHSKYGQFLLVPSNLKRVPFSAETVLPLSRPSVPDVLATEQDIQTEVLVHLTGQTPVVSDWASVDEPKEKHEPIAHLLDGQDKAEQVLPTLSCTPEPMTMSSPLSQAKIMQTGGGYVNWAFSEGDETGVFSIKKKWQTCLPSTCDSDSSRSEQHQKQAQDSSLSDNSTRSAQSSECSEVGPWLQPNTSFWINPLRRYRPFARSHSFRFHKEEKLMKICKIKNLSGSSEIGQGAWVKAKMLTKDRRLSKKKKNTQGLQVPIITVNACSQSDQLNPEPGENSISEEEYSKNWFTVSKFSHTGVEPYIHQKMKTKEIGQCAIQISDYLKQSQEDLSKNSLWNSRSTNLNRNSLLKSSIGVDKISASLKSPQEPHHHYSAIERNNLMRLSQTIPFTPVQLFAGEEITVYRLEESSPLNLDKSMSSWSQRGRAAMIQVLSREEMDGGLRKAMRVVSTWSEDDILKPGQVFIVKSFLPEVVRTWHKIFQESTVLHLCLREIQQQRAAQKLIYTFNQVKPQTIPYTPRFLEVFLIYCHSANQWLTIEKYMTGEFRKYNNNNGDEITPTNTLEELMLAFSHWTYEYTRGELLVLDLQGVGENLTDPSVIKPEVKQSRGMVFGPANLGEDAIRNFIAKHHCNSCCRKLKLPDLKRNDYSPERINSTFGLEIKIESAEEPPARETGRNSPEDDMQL

[36] = target: Mitogen-activated protein kinase 11 (Homo sapiens) (UniProt Q15759); conditions: Compound concentration 1000.0 nM
[37] = target: Mast/stem cell growth factor receptor Kit (Homo sapiens) (UniProt P10721); conditions: Compound concentration 1000.0 nM
[38] = target: Mitogen-activated protein kinase kinase kinase 10 (Homo sapiens) (UniProt Q02779); conditions: Compound concentration 1000.0 nM
[39] = target: Serine/threonine-protein kinase PAK 2 (Homo sapiens) (UniProt Q13177); conditions: Compound concentration 1000.0 nM
[40] = tested on: Epidermal growth factor receptor (Homo sapiens), P00533 [G719S]; conditions: Compound concentration 1000.0 nM
[41] = target: Testis-specific serine/threonine-protein kinase 1 (Homo sapiens) (UniProt Q9BXA7); conditions: Compound concentration 1000.0 nM
Testis-specific serine/threonine-protein kinase 1 (Homo sapiens), sequence (Q9BXA7 whole entry): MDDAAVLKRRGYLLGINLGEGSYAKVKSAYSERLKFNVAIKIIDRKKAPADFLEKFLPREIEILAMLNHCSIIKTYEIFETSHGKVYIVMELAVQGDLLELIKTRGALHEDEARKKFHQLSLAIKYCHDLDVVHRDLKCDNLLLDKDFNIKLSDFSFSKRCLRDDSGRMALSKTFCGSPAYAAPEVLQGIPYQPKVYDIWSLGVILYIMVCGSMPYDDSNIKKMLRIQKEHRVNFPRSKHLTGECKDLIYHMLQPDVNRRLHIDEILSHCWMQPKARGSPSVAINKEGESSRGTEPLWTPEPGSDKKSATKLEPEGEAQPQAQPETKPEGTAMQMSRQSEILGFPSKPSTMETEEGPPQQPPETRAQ

[42] = target: Serine/threonine-protein kinase Nek9 (Homo sapiens) (UniProt Q8TD19); conditions: Compound concentration 1000.0 nM
[43] = target: Serine/threonine-protein kinase Sgk3 (Homo sapiens) (UniProt Q96BR1); conditions: Compound concentration 1000.0 nM
[44] = target: Angiopoietin-1 receptor (Homo sapiens) (UniProt Q02763); conditions: Compound concentration 1000.0 nM
[45] = target: cAMP-dependent protein kinase catalytic subunit beta (Homo sapiens) (UniProt P22694); conditions: Compound concentration 1000.0 nM

Casein kinase I isoform alpha-like (Homo sapiens), sequence (Q8N752 whole entry, canonical isoform): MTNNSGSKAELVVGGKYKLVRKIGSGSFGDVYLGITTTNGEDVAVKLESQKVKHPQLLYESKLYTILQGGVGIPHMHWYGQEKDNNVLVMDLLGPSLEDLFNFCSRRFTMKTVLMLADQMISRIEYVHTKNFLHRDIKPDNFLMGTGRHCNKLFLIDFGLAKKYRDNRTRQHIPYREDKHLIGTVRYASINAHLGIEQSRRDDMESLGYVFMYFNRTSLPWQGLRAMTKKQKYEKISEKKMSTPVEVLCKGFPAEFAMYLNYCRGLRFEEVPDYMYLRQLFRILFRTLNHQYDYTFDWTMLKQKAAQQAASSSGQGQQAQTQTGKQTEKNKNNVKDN

O=C(NCc1ncc(C(F)(F)F)cc1Cl)c1ccc2c(c1)C1(CCS(=O)(=O)CC1)[C@H](C1CC1)N2S(=O)(=O)c1ccc(F)cc1 [BAY-784]
inactive: residual activity [1] 100% | residual activity [2] 95% | residual activity [3] 100% | residual activity [4] 80% | residual activity [5] 82% | residual activity [6] 64% | residual activity [7] 100% | residual activity [8] 70% | residual activity [9] 93% | residual activity [10] 87% | residual activity [11] 100% | residual activity [12] 100% | residual activity [13] 88% | residual activity [14] 97% | inhibition [15] 14.6% | residual activity [16] 100% | residual activity [17] 94% | residual activity [18] 100% | residual activity [19] 88% | residual activity [20] 97% | residual activity [21] 100% | residual activity [22] 64% | residual activity [23] 100% | residual activity [24] 93% | residual activity [25] 91% | residual activity [26] 100% | residual activity [27] 83% | residual activity [28] 83% | residual activity [29] 100% | residual activity [30] 98% | residual activity [31] 100% | inhibition [32] -4.46% | residual activity [33] 100% | residual activity [34] 100% | residual activity [35] 81% | residual activity [36] 100% | residual activity [37] 76% | residual activity [38] 100% | residual activity [39] 100% | residual activity [40] 92% | residual activity [41] 100% | residual activity [42] 100% | residual activity [43] 99% | residual activity [44] 100% | residual activity [45] 96%

O=C(NCc1ncc(C(F)(F)F)cc1Cl)c1ccc2c(c1)C1(CCS(=O)(=O)CC1)[C@@H](C1CC1)N2S(=O)(=O)c1ccc(F)cc1 [BAY-786]
inactive: residual activity [1] 73% | residual activity [2] 100% | residual activity [3] 100% | residual activity [4] 75% | residual activity [5] 100% | residual activity [6] 73% | residual activity [7] 100% | residual activity [8] 72% | residual activity [9] 80% | residual activity [10] 86% | residual activity [11] 94% | residual activity [12] 80% | residual activity [13] 88% | residual activity [14] 92% | inhibition [15] 16.5% | residual activity [16] 71% | residual activity [17] 87% | residual activity [18] 100% | residual activity [19] 78% | residual activity [20] 96% | residual activity [21] 87% | residual activity [22] 72% | residual activity [23] 100% | residual activity [24] 85% | residual activity [25] 94% | residual activity [26] 93% | residual activity [27] 77% | residual activity [28] 88% | residual activity [29] 100% | residual activity [30] 98% | residual activity [31] 100% | inhibition [32] -8.58% | residual activity [33] 97% | residual activity [34] 100% | residual activity [35] 92% | residual activity [36] 100% | residual activity [37] 82% | residual activity [38] 100% | residual activity [39] 84% | residual activity [40] 86% | residual activity [41] 100% | residual activity [42] 72% | residual activity [43] 83% | residual activity [44] 96% | residual activity [45] 85%
